Data reported in ChEMBL document CHEMBL1129930, “Analogues of methotrexate in rheumatoid arthritis. 2. Effects of 5-deazaaminopterin, 5,10-dideazaaminopterin, and analogues on type II collagen-induced arthritis in mice” (J Med Chem, 1997).

Key:
Mus musculus [1] = assay: Incidence of disease (mouse type II collagen) was scored as the percentage of animals within each experimental group that exhibited joint or limb inflammation on day 23 at intraperitoneal dose of 10 mg/kg; assay type: functional
Mus musculus [2] = assay: Incidence of disease (mouse type II collagen) was scored as the percentage of animals within each experimental group that exhibited joint or limb inflammation on day 37 at intraperitoneal dose of 5 mg/kg; assay type: functional
Mus musculus [3] = assay: Tested for antiinflammatory activity on mouse type II collagen arthritis as Paw swelling of all animals in each group on day 23 at intraperitoneal dose of 5 mg/kg; assay type: functional
Mus musculus [4] = assay: Tested for antiinflammatory activity on mouse type II collagen arthritis as Paw swelling of all animals in each group on day 37 at intraperitoneal dose of 5 mg/kg; assay type: functional
Mus musculus [5] = assay: Incidence of disease (mouse type II collagen) was scored as the percentage of animals within each experimental group that exhibited joint or limb inflammation on day 37 at intraperitoneal dose of 10 mg/kg; assay type: functional
Mus musculus [6] = assay: Incidence of disease (mouse type II collagen) was scored as the percentage of animals within each experimental group that exhibited joint or limb inflammation on day 23 at intraperitoneal dose of 5 mg/kg; assay type: functional
Mus musculus [7] = assay: Incidence of disease (mouse type II collagen) was scored as the percentage of animals within each experimental group that exhibited joint or limb inflammation on day 44 at intraperitoneal dose of 10 mg/kg; assay type: functional
Mus musculus [8] = assay: Incidence of disease (mouse type II collagen) was scored as the percentage of animals within each experimental group that exhibited joint or limb inflammation on day 44 at intraperitoneal dose of 5 mg/kg; assay type: functional
Mus musculus [9] = assay: Tested for antiinflammatory activity on mouse type II collagen arthritis as Paw swelling of all animals in each group on day 44 at intraperitoneal dose of 5 mg/kg; assay type: functional
Mus musculus [10] = assay: Tested for antiinflammatory activity on mouse type II collagen arthritis as Paw swelling of all animals in each group on day 44 at intraperitoneal dose of 10 mg/kg; assay type: functional
Mus musculus [11] = assay: Tested for antiinflammatory activity on mouse type II collagen arthritis as Paw swelling of all animals in each group on day 37 at intraperitoneal dose of 10 mg/kg; assay type: functional
Mus musculus [12] = assay: Tested for antiinflammatory activity on mouse type II collagen arthritis as Paw swelling of all animals in each group on day 30 at intraperitoneal dose of 10 mg/kg; assay type: functional
Mus musculus [13] = assay: Tested for antiinflammatory activity on mouse type II collagen arthritis as Paw swelling of all animals in each group on day 30 at intraperitoneal dose of 5 mg/kg; assay type: functional
Mus musculus [14] = assay: Tested for antiinflammatory activity on mouse type II collagen arthritis as Paw swelling of all animals in each group on day 23 at intraperitoneal dose of 10 mg/kg; assay type: functional
Mus musculus [15] = assay: Incidence of disease (mouse type II collagen) was scored as the percentage of animals within each experimental group that exhibited joint or limb inflammation on day 30 at intraperitoneal dose of 5 mg/kg; assay type: functional
Mus musculus [16] = assay: Incidence of disease (mouse type II collagen) was scored as the percentage of animals within each experimental group that exhibited joint or limb inflammation on day 30 at intraperitoneal dose of 10 mg/kg; assay type: functional
Mus musculus [17] = assay: Incidence of disease (mouse type II collagen) was scored as the percentage of animals within each experimental group that exhibited joint or limb inflammation on day 23 at intraperitoneal dose of 6 mg/kg (1 animal died); assay type: functional
Mus musculus [18] = assay: Tested for antiinflammatory activity on mouse type II collagen arthritis as Paw swelling of all animals in each group on day 23 at intraperitoneal dose of 0.38 mg/kg; assay type: functional
Mus musculus [19] = assay: Incidence of disease (mouse type II collagen) was scored as the percentage of animals within each experimental group that exhibited joint or limb inflammation on day 44 at intraperitoneal dose of 0.75 mg/kg; assay type: functional
Mus musculus [20] = assay: Tested for antiinflammatory activity on mouse type II collagen arthritis as Paw swelling of all animals in each group on day 37 at intraperitoneal dose of 0.38 mg/kg; assay type: functional
[21] = Concentration required to inhibit the growth of chang liver cells.; assay type: functional; conditions: Homo sapiens
Mus musculus [22] = assay: Incidence of disease (mouse type II collagen) was scored as the percentage of animals within each experimental group that exhibited joint or limb inflammation on day 37 at intraperitoneal dose of 0.75 mg/kg; assay type: functional
Mus musculus [23] = assay: Incidence of disease (mouse type II collagen) was scored as the percentage of animals within each experimental group that exhibited joint or limb inflammation on day 44 at intraperitoneal dose of 6 mg/kg (1 animal died); assay type: functional
Mus musculus [24] = assay: Incidence of disease (mouse type II collagen) was scored as the percentage of animals within each experimental group that exhibited joint or limb inflammation on day 44 at intraperitoneal dose of 1.5 mg/kg; assay type: functional
Mus musculus [25] = assay: Incidence of disease (mouse type II collagen) was scored as the percentage of animals within each experimental group that exhibited joint or limb inflammation on day 30 at intraperitoneal dose of 0.38 mg/kg; assay type: functional
Mus musculus [26] = assay: Incidence of disease (mouse type II collagen) was scored as the percentage of animals within each experimental group that exhibited joint or limb inflammation on day 37 at intraperitoneal dose of 0.38 mg/kg; assay type: functional
L1210 = assay: Concentration required to inhibit the growth of L1210 cells.; assay type: functional, cell-based; conditions: Mus musculus
Mus musculus [27] = assay: Tested for antiinflammatory activity on mouse type II collagen arthritis as Paw swelling of all animals in each group on day 30 at intraperitoneal dose of 3 mg/kg; assay type: functional
Mus musculus [28] = assay: Tested for antiinflammatory activity on mouse type II collagen arthritis as Paw swelling of all animals in each group on day 30 at intraperitoneal dose of 0.38 mg/kg; assay type: functional
Mus musculus [29] = assay: Tested for antiinflammatory activity on mouse type II collagen arthritis as Paw swelling of all animals in each group on day 23 at intraperitoneal dose of 0.75 mg/kg; assay type: functional
Mus musculus [30] = assay: Incidence of disease (mouse type II collagen) was scored as the percentage of animals within each experimental group that exhibited joint or limb inflammation on day 30 at intraperitoneal dose of 0.75 mg/kg; assay type: functional
Mus musculus [31] = assay: Tested for antiinflammatory activity on mouse type II collagen arthritis as Paw swelling of all animals in each group on day 37 at intraperitoneal dose of 1.5 mg/kg; assay type: functional
Mus musculus [32] = assay: Tested for antiinflammatory activity on mouse type II collagen arthritis as Paw swelling of all animals in each group on day 44 at intraperitoneal dose of 3 mg/kg; assay type: functional
Mus musculus [33] = assay: Tested for antiinflammatory activity on mouse type II collagen arthritis as Paw swelling of all animals in each group on day 23 at intraperitoneal dose of 6 mg/kg; assay type: functional
Mus musculus [34] = assay: Incidence of disease (mouse type II collagen) was scored as the percentage of animals within each experimental group that exhibited joint or limb inflammation on day 23 at intraperitoneal dose of 3 mg/kg; assay type: functional
Mus musculus [35] = assay: Tested for antiinflammatory activity on mouse type II collagen arthritis as Paw swelling of all animals in each group on day 44 at intraperitoneal dose of 6 mg/kg; assay type: functional
Mus musculus [36] = assay: Incidence of disease (mouse type II collagen) was scored as the percentage of animals within each experimental group that exhibited joint or limb inflammation on day 23 at intraperitoneal dose of 1.5 mg/kg; assay type: functional
Mus musculus [37] = assay: Incidence of disease (mouse type II collagen) was scored as the percentage of animals within each experimental group that exhibited joint or limb inflammation on day 37 at intraperitoneal dose of 3 mg/kg; assay type: functional
Mus musculus [38] = assay: Incidence of disease (mouse type II collagen) was scored as the percentage of animals within each experimental group that exhibited joint or limb inflammation on day 23 at intraperitoneal dose of 0.75 mg/kg; assay type: functional
Mus musculus [39] = assay: Tested for antiinflammatory activity on mouse type II collagen arthritis as Paw swelling of all animals in each group on day 30 at intraperitoneal dose of 1.5 mg/kg; assay type: functional
Mus musculus [40] = assay: Tested for antiinflammatory activity on mouse type II collagen arthritis as Paw swelling of all animals in each group on day 44 at intraperitoneal dose of 0.38 mg/kg; assay type: functional
Mus musculus [41] = assay: Tested for antiinflammatory activity on mouse type II collagen arthritis as Paw swelling of all animals in each group on day 30 at intraperitoneal dose of 0.75 mg/kg; assay type: functional
Mus musculus [42] = assay: Incidence of disease (mouse type II collagen) was scored as the percentage of animals within each experimental group that exhibited joint or limb inflammation on day 37 at intraperitoneal dose of 1.5 mg/kg; assay type: functional
Mus musculus [43] = assay: Tested for antiinflammatory activity on mouse type II collagen arthritis as Paw swelling of all animals in each group on day 37 at intraperitoneal dose of 6 mg/kg; assay type: functional
Mus musculus [44] = assay: Tested for antiinflammatory activity on mouse type II collagen arthritis as Paw swelling of all animals in each group on day 37 at intraperitoneal dose of 0.75 mg/kg; assay type: functional
Mus musculus [45] = assay: Incidence of disease (mouse type II collagen) was scored as the percentage of animals within each experimental group that exhibited joint or limb inflammation on day 44 at intraperitoneal dose of 0.38 mg/kg; assay type: functional
Mus musculus [46] = assay: Incidence of disease (mouse type II collagen) was scored as the percentage of animals within each experimental group that exhibited joint or limb inflammation on day 44 at intraperitoneal dose of 3 mg/kg; assay type: functional
Mus musculus [47] = assay: Incidence of disease (mouse type II collagen) was scored as the percentage of animals within each experimental group that exhibited joint or limb inflammation on day 23 at intraperitoneal dose of 0.38 mg/kg; assay type: functional
Mus musculus [48] = assay: Tested for antiinflammatory activity on mouse type II collagen arthritis as Paw swelling of all animals in each group on day 44 at intraperitoneal dose of 0.75 mg/kg; assay type: functional
Mus musculus [49] = assay: Incidence of disease (mouse type II collagen) was scored as the percentage of animals within each experimental group that exhibited joint or limb inflammation on day 30 at intraperitoneal dose of 6 mg/kg (1 animal died); assay type: functional
Mus musculus [50] = assay: Tested for antiinflammatory activity on mouse type II collagen arthritis as Paw swelling of all animals in each group on day 30 at intraperitoneal dose of 6 mg/kg; assay type: functional
Mus musculus [51] = assay: Incidence of disease (mouse type II collagen) was scored as the percentage of animals within each experimental group that exhibited joint or limb inflammation on day 30 at intraperitoneal dose of 1.5 mg/kg; assay type: functional
Mus musculus [52] = assay: Tested for antiinflammatory activity on mouse type II collagen arthritis as Paw swelling of all animals in each group on day 44 at intraperitoneal dose of 1.5 mg/kg; assay type: functional
Mus musculus [53] = assay: Tested for antiinflammatory activity on mouse type II collagen arthritis as Paw swelling of all animals in each group on day 37 at intraperitoneal dose of 3 mg/kg; assay type: functional
Mus musculus [54] = assay: Incidence of disease (mouse type II collagen) was scored as the percentage of animals within each experimental group that exhibited joint or limb inflammation on day 37 at intraperitoneal dose of 6 mg/kg (1 animal died); assay type: functional
Mus musculus [55] = assay: Incidence of disease (mouse type II collagen) was scored as the percentage of animals within each experimental group that exhibited joint or limb inflammation on day 30 at intraperitoneal dose of 3 mg/kg; assay type: functional

C#CCC(Cc1cnc2nc(N)nc(N)c2c1C)c1ccc(C(=O)NC(CCC(=O)O)C(=O)O)cc1 (stereo unspecified)
Animals (Mus musculus [1]): 14%
Animals (Mus musculus [2]): 62%
Paw swelling (Mus musculus [3]): 2.18 mm
Paw swelling (Mus musculus [4]): 2.45 mm
Animals (Mus musculus [5]): 71%
Animals (Mus musculus [6]): 12%
Animals (Mus musculus [7]): 71%
Animals (Mus musculus [8]): 88%
Paw swelling (Mus musculus [9]): 2.64 mm
Paw swelling (Mus musculus [10]): 2.7 mm
Paw swelling (Mus musculus [11]): 2.65 mm
Paw swelling (Mus musculus [12]): 2.37 mm
Paw swelling (Mus musculus [13]): 2.17 mm
Paw swelling (Mus musculus [14]): 2.19 mm
Animals (Mus musculus [15]): 12%
Animals (Mus musculus [16]): 57%

C=CCN(Cc1cnc2nc(N)nc(N)c2c1C)c1ccc(C(=O)NC(CCC(=O)O)C(=O)O)cc1 (stereo unspecified)
Animals (Mus musculus [17]): 0%
Paw swelling (Mus musculus [18]): 2.17 mm
Animals (Mus musculus [19]): 50%
Paw swelling (Mus musculus [20]): 2.3 mm
IC50 [21]: 30 nM
Animals (Mus musculus [22]): 38%
Animals (Mus musculus [23]): 0%
Animals (Mus musculus [24]): 50%
Animals (Mus musculus [25]): 0%
Animals (Mus musculus [26]): 38%
IC50 (L1210): 3.4 nM
Paw swelling (Mus musculus [27]): 2.12 mm
Paw swelling (Mus musculus [28]): 2.17 mm
Paw swelling (Mus musculus [29]): 2.17 mm
Animals (Mus musculus [30]): 25%
Paw swelling (Mus musculus [31]): 2.26 mm
Paw swelling (Mus musculus [32]): 2.16 mm
Paw swelling (Mus musculus [33]): 2.09 mm
Animals (Mus musculus [34]): 0%
Paw swelling (Mus musculus [35]): 2.13 mm
Animals (Mus musculus [36]): 0%
Animals (Mus musculus [37]): 0%
Animals (Mus musculus [38]): 0%
Paw swelling (Mus musculus [39]): 2.24 mm
Paw swelling (Mus musculus [40]): 2.39 mm
Paw swelling (Mus musculus [41]): 2.22 mm
Animals (Mus musculus [42]): 25%
Paw swelling (Mus musculus [43]): 2.15 mm
Paw swelling (Mus musculus [44]): 2.33 mm
Animals (Mus musculus [45]): 62%
Animals (Mus musculus [46]): 0%
Animals (Mus musculus [47]): 0%
Paw swelling (Mus musculus [48]): 2.36 mm
Animals (Mus musculus [49]): 0%
Paw swelling (Mus musculus [50]): 2.1 mm
Animals (Mus musculus [51]): 12%
Paw swelling (Mus musculus [52]): 2.32 mm
Paw swelling (Mus musculus [53]): 2.14 mm
Animals (Mus musculus [54]): 0%
Animals (Mus musculus [55]): 0%
